Laboratory results reported in PubChem BioAssay (NCI).
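Interpolation was linear, between the two tested concentrations surrounding the appropriate level; five concentrations were tested over 48 hours in 96-well plates. TGI denotes the concentration required for complete inhibition of growth.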

Experiments:
Test in all cases: NCI tumour cell line growth inhibition, 48 h
T-47D breast = test system: T-47D breast
DMS 114 small cell lung = test system: DMS 114 small cell lung
HCC-2998 colon = test system: HCC-2998 colon
HOP-62 NSCLC = test system: HOP-62 NSCLC
SR leukemia = test system: SR leukemia
RPMI-8226 leukemia = test system: RPMI-8226 leukemia
M19-MEL melanoma = test system: M19-MEL melanoma
A498 renal = test system: A498 renal
CCRF-CEM leukemia = test system: CCRF-CEM leukemia
U251 CNS = test system: U251 CNS
MCF7 breast = test system: MCF7 breast
MDA-N = test system: MDA-N
SNB-78 CNS = test system: SNB-78 CNS
UACC-62 melanoma = test system: UACC-62 melanoma
OVCAR-8 ovarian = test system: OVCAR-8 ovarian
MDA-MB-435 = test system: MDA-MB-435
HCT-15 colon = test system: HCT-15 colon
SNB-19 CNS = test system: SNB-19 CNS
OVCAR-3 ovarian = test system: OVCAR-3 ovarian
NCI-H460 lung = test system: NCI-H460 lung
UO-31 renal = test system: UO-31 renal
RXF-631 renal = test system: RXF-631 renal
SN12C renal = test system: SN12C renal
SW-620 colon = test system: SW-620 colon
HS 578T breast = test system: HS 578T breast
SK-MEL-28 melanoma = test system: SK-MEL-28 melanoma
KM20L2 colon = test system: KM20L2 colon
BT-549 breast = test system: BT-549 breast
NCI-H226 lung = test system: NCI-H226 lung
HT29 colon = test system: HT29 colon
DLD-1 colon = test system: DLD-1 colon
MOLT-4 leukemia = test system: MOLT-4 leukemia
HCT-116 colon = test system: HCT-116 colon
786-0 renal = test system: 786-0 renal
HL-60(TB) leukemia = test system: HL-60(TB) leukemia
KM12 colon = test system: KM12 colon
ACHN renal = test system: ACHN renal
OVCAR-5 ovarian = test system: OVCAR-5 ovarian
OVCAR-4 ovarian = test system: OVCAR-4 ovarian
K-562 leukemia = test system: K-562 leukemia
CAKI-1 renal = test system: CAKI-1 renal
HOP-18 NSCLC = test system: HOP-18 NSCLC
UACC-257 melanoma = test system: UACC-257 melanoma
MALME-3M melanoma = test system: MALME-3M melanoma
SF-539 CNS = test system: SF-539 CNS
RXF 393 renal = test system: RXF 393 renal
SK-MEL-2 melanoma = test system: SK-MEL-2 melanoma
SNB-75 CNS = test system: SNB-75 CNS
M14 melanoma = test system: M14 melanoma
SK-OV-3 ovarian = test system: SK-OV-3 ovarian
SF-295 CNS = test system: SF-295 CNS
MDA-MB-231 breast = test system: MDA-MB-231 breast
NCI-H522 lung = test system: NCI-H522 lung
DU-145 prostate = test system: DU-145 prostate
XF 498 CNS = test system: XF 498 CNS
SK-MEL-5 melanoma = test system: SK-MEL-5 melanoma
TK-10 renal = test system: TK-10 renal
A549 NSCLC = test system: A549 NSCLC
COLO 205 colon = test system: COLO 205 colon
EKVX NSCLC = test system: EKVX NSCLC
LXFL 529 NSCLC = test system: LXFL 529 NSCLC
DMS 273 small cell lung = test system: DMS 273 small cell lung
HOP-92 NSCLC = test system: HOP-92 NSCLC
SF-268 CNS = test system: SF-268 CNS
NCI-H23 lung = test system: NCI-H23 lung
LOX IMVI melanoma = test system: LOX IMVI melanoma
IGROV1 ovarian = test system: IGROV1 ovarian

C/C(N=NC(=S)N1CCCCCC1)=C1\C=CC=CN1O
TGI (T-47D breast): 77.7 µM
TGI (DMS 114 small cell lung): 3.45 µM
TGI (HCC-2998 colon): > 100 µM
TGI (HOP-62 NSCLC): > 20.5 µM
TGI (SR leukemia): > 100 µM
TGI (RPMI-8226 leukemia): 11.1 µM
TGI (M19-MEL melanoma): 59.3 µM
TGI (A498 renal): 92.1 µM
TGI (CCRF-CEM leukemia): 4.93 µM
TGI (U251 CNS): > 100 µM
TGI (MCF7 breast): > 100 µM
TGI (MDA-N): > 100 µM
TGI (SNB-78 CNS): > 100 µM
TGI (UACC-62 melanoma): 24.6 µM
TGI (OVCAR-8 ovarian): > 49.4 µM
TGI (MDA-MB-435): > 100 µM
TGI (HCT-15 colon): > 100 µM
TGI (SNB-19 CNS): > 100 µM
TGI (OVCAR-3 ovarian): 11.8 µM
TGI (NCI-H460 lung): 31.3 µM
TGI (UO-31 renal): > 100 µM
TGI (RXF-631 renal): > 100 µM
TGI (SN12C renal): > 100 µM
TGI (SW-620 colon): > 100 µM
TGI (HS 578T breast): > 100 µM
TGI (SK-MEL-28 melanoma): > 96.3 µM
TGI (KM20L2 colon): > 100 µM
TGI (BT-549 breast): > 100 µM
TGI (NCI-H226 lung): > 90.3 µM
TGI (HT29 colon): > 35.6 µM
TGI (DLD-1 colon): > 100 µM
TGI (MOLT-4 leukemia): 20.1 µM
TGI (HCT-116 colon): > 100 µM
TGI (786-0 renal): > 49.9 µM
TGI (HL-60(TB) leukemia): 1.74 µM
TGI (KM12 colon): > 100 µM
TGI (ACHN renal): 67.6 µM
TGI (OVCAR-5 ovarian): > 100 µM
TGI (OVCAR-4 ovarian): > 100 µM
TGI (K-562 leukemia): > 51.3 µM
TGI (CAKI-1 renal): > 89.3 µM
TGI (HOP-18 NSCLC): > 92.9 µM
TGI (UACC-257 melanoma): 10.9 µM
TGI (MALME-3M melanoma): 36.4 µM
TGI (SF-539 CNS): 48.2 µM
TGI (RXF 393 renal): 79.5 µM
TGI (SK-MEL-2 melanoma): 18.8 µM
TGI (SNB-75 CNS): 72.7 µM
TGI (M14 melanoma): 38.8 µM
TGI (SK-OV-3 ovarian): 98.2 µM
TGI (SF-295 CNS): > 100 µM
TGI (MDA-MB-231 breast): > 100 µM
TGI (NCI-H522 lung): 7.1 µM
TGI (DU-145 prostate): > 100 µM
TGI (XF 498 CNS): > 100 µM
TGI (SK-MEL-5 melanoma): 35.3 µM
TGI (TK-10 renal): > 100 µM
TGI (A549 NSCLC): > 92.3 µM
TGI (COLO 205 colon): 55.2 µM
TGI (EKVX NSCLC): > 94.4 µM
TGI (LXFL 529 NSCLC): > 100 µM
TGI (DMS 273 small cell lung): 42.1 µM
TGI (HOP-92 NSCLC): 72.4 µM
TGI (SF-268 CNS): > 100 µM
TGI (NCI-H23 lung): > 56.2 µM
TGI (LOX IMVI melanoma): > 56.3 µM
TGI (IGROV1 ovarian): > 53.8 µM
